Test results published in US7351875B2, “FcγRIIa transgenic animal model for autoimmune disease” (Trillium Therapeutics, Inc., priority 2002, dated 2008).

Tests used:
[1] = test system: FcγRIIa transgenic mice with CIA; assay: Collagen-induced arthritis (CIA) in FcγRIIa transgenic mice, arthritis index; assay type: in vivo, mouse; details: FIG. 14
Text: In transgenic mouse models of the present invention the following mice strains were used DBA/1 (H-2^q) males at 8-12 weeks old, C57BL/6 (H-2^b) and (C57BL/6×SJ (H-2^b/s) males or females at 8-15 weeks old, and transgenic mice expressing the FcγRIIa human transgene on platelets, neutrophils and macrophages at physiological levels, (as described in McKenzie et al. 1999). Transgenic males or females at 12-15 weeks old were used in collagen-induced arthritis (CIA) experiments, and >25 weeks old for the spontaneous autoimmune disease studies. All mice were bred and kept in clean conditions and were fed a standard diet and water ad libitum. The mouse is characterised in the published paper by McKenzie et al. 1999, listed in references.
Complete Freund's Adjuvant (CFA) was prepared by mixing 100 mg heat-killed M tuberculosis H37 Ra (Difco Laboratories, Detroit, Mich.) ground in 20 ml Incomplete Freund's Adjuvant (Difco Laboratories, Detroit, Mich.). […]
Mice were examined 2-3 times per week from day 14 onwards. […] The score of each mouse was calculated for the four limbs (maximum total score of 12 for each mouse) (Campbell et al. 1997). […]
The score for each mouse was calculated by adding the scores of the four limbs (maximum score of 12 for each mouse) (Campbell et al. 1997). […]

[2] = test system: non transgenic DBA/1 mice with CIA; details: Neurath, Hildner et al. 1999; cited from earlier work

CN(Cc1cnc2nc(N)nc(N)c2n1)c1ccc(C(=O)N[C@@H](CCC(=O)O)C(=O)O)cc1 [methotrexate]
delay of CIA ([1]; 1 mg/kg for 14 days from second collagen injection, day 21-35): effective in delaying CIA
disease after treatment ceased ([1]; as immune function returned to normal after treatment ceased): increased in severity
delay of CIA in DBA/1 mice [2]: effective in delaying CIA
